Assay results: patent publication US20230144436A1, “MUSCLE TARGETING COMPLEXES AND USES THEREOF FOR TREATING MYOTONIC DYSTROPHY” (Dyne Therapeutics, Inc., priority 2020, published 2023)

What was measured:
[1] = tested on: DMPK; test: Dose-responsive DMPK reduction in DM1 C15 myotubes (EC-50); format: cell-based; conditions: DM1 C15 differentiated myotubes, 72 hours; for EC50: transfection with Lipofectamine MessengerMax, 0.046-100 nM; for Percent DMPK reduction at 100 nM: transfection
Method: Eighteen oligonucleotides from Example 7 were selected to be evaluated for their ability to reduce DMPK expression in a dose-responsive manner. DM1 C15 myoblasts were prepared as in Example 7 to yield differentiated myotubes in 96-well microplates. After seven days of differentiation, cells were transfected with individual oligonucleotides using Lipofectamine MessengerMax. Each oligonucleotide was tested in triplicate at concentrations of 0.046 nM, 0.137 nM, 0.412 nM, 1.235 nM, 3.704 nM, 11.11 nM, 33.33 nM, and 100 nM by 3-fold serial dilutions using 0.3 μL of Lipofectamine MessengerMax per well.
Following addition of oligonucleotide, cells were incubated for 72 hours prior to harvesting for total RNA. cDNA was synthesized from the total RNA extracts and qPCR was performed to determine expression levels of DMPK using a commercially available Taqman probeset in technical quadruplicate. All qPCR data were analyzed using a traditional ΔΔCT method and were normalized to a plate-based negative control that comprised of cells treated with vehicle control (0.3 μL/well Lipofectamine MessengerMax without any oligonucleotide). Data for each oligonucleotide to was fit to sigmoidal curve in order to determine an effective concentration of each oligonucleotide that provided a half-maximal response (EC-50).

[2] = tested on: DMPK; test: DMPK knockdown by transfected antisense oligonucleotides in DM1 C15 myotubes at 0.5 nM and 50 nM; format: cell-based; conditions: 72 hours; for Normalized DMPK Remaining: relative to vehicle control = 1.00
Summary of the method: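 Seven-day-differentiated DM1 C15 myotubes transfected (Lipofectamine MessengerMax) with each oligonucleotide at 0.5 nM or 50 nM final, biological triplicates. After 72 h, DMPK mRNA quantified by qPCR, expressed relative to vehicle-only transfection set to 1.00.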

[3] = 0.5 nM oligonucleotide, qPCR, relative to vehicle control
[4] = 50 nM oligonucleotide, qPCR, relative to vehicle control

Substance	EC50 [1]	Percent DMPK reduction at 100 nM [1]	Percent DMPK Reduction [2, 3]	Normalized DMPK Remaining ([2]; 0.5 nM oligonucleotide, qPCR)	Percent DMPK Reduction [2, 4]	Normalized DMPK Remaining ([2]; 50 nM oligonucleotide, qPCR)	Percent DMPK Reduction ([2]; 0.5 nM oligonucleotide)	Normalized DMPK Remaining ([2]; 0.5 nM oligonucleotide)	Percent DMPK Reduction ([2]; 50 nM oligonucleotide)	Normalized DMPK Remaining ([2]; 50 nM oligonucleotide)
362 (GCUGUCCCGGAGACCAUCCC; chemistry not given here) [compound 362]	3.27 nM	93.07%	22.57%	0.77	66.27%	0.34				
293 (GAAUGUCCGACAGUGUCUCC; chemistry not given here) [compound 293]	0.07 nM	97.23%	30.09%	0.70	63.41%	0.37				
299 (GCAGGAUGUUGUCGGGUUUG; chemistry not given here) [compound 299]	0.168 nM	89.77%	44.39%	0.56	78.03%	0.22				
280 (UUGCCAUAGGUCUCCGCCGU; chemistry not given here) [compound 280]	0.37 nM	93.70%	36.30%	0.64	60.12%	0.40				
310 (GCGUAGAAGGGCGUCUGCCC; chemistry not given here) [compound 310]	24.6 nM	95.13%	39.53%	0.60	77.91%	0.22				
272 (CUCUGCCGCAGGGACAGCCG; chemistry not given here) [compound 272]	0.42 nM	93.66%	37.09%	0.63	93.59%	0.06				
270 (GGGCCUGGGACCUCACUGUC; chemistry not given here) [compound 270]	0.07 nM	90.58%	37.19%	0.63	76.81%	0.23				
260 (CGAAUGUCCGACAGUGUCUC; chemistry not given here) [compound 260]	0.18 nM	95.93%	40.21%	0.60	64.42%	0.36				
346 (GACAGAACAACGGCGAACAG; chemistry not given here) [compound 346]	0.08 nM	94.32%	21.41%	0.79	70.49%	0.30				
313 (GGACGAUCUUGCCAUAGGUC; chemistry not given here) [compound 313]	3.59 nM	92.18%	29.82%	0.70	48.97%	0.51				
294 (CGUUCCAUCUGCCCGCAGCU; chemistry not given here) [compound 294]	0.19 nM	89.97%	33.74%	0.66	68.72%	0.31				
286 (GCUUCAUCUUCACUACCGCU; chemistry not given here) [compound 286]	0.03 nM	64.06%	31.44%	0.69	51.78%	0.48				
320 (CCCAGCGCCCACCAGUCACA; chemistry not given here) [compound 320]	5.45 nM	63.69%	37.93%	0.62	67.82%	0.32				
404 (CUCUGCCUCGCGUAGUUGAC; chemistry not given here) [compound 404]							16.61%	0.83	91.21%	0.09
307 (GGGUUUGAUGUCCCUGUGCA; chemistry not given here) [compound 307]			40.12%	0.60	62.61%	0.37				
439 (CACCAACACGUCCCUCUCCU; chemistry not given here) [compound 439]							37.51%	0.62	81.57%	0.18
336 (GAUGUUGUCGGGUUUGAUGU; chemistry not given here) [compound 336]			10.06%	0.90	42.42%	0.58				
443 (CCAUCCGCUCCUGCAACUGC; chemistry not given here) [compound 443]							19.53%	0.80	71.62%	0.28
263 (GGAUGGCCUCCAUCUCCCGG; chemistry not given here) [compound 263]			24.93%	0.75	60.77%	0.39				
274 (UGCCCAUCCACGUCAGGGCC; chemistry not given here) [compound 274]			13.63%	0.86	33.09%	0.67				
345 (AAGCGCCUCCGAUAGGCCAG; chemistry not given here) [compound 345]			8.91%	0.91	43.93%	0.56				
325 (GGUAGUUCUCAUCCUGGAAG; chemistry not given here) [compound 325]			25.48%	0.75	56.15%	0.44				
394 (GAGCCUCUGCCUCGCGUAGU; chemistry not given here) [compound 394]							18.77%	0.81	77.78%	0.22
250 (CGGAUGGCCUCCAUCUCCCG; chemistry not given here) [compound 250]			28.92%	0.71	55.57%	0.44				
